The values below are quoted from earlier work in US20090062282A1, “Substituted Amino-Pyrimidones and Uses Thereof” (AstraZeneca AB, priority 2004, published 2009).

The data set addresses BACE (Homo sapiens, UniProt P56817).

Each structure is given as a SMILES string. Square brackets hold non-standard residues; d marks the D form. Peptide text beside a SMILES is read from it. * marks the point of attachment. Sta = CC(C)C[C@H](N)[C@@H](O)CC(=O)O; Isovaleryl = CC(C)CC(=O)*

BACE, sequence (P56817 46-501): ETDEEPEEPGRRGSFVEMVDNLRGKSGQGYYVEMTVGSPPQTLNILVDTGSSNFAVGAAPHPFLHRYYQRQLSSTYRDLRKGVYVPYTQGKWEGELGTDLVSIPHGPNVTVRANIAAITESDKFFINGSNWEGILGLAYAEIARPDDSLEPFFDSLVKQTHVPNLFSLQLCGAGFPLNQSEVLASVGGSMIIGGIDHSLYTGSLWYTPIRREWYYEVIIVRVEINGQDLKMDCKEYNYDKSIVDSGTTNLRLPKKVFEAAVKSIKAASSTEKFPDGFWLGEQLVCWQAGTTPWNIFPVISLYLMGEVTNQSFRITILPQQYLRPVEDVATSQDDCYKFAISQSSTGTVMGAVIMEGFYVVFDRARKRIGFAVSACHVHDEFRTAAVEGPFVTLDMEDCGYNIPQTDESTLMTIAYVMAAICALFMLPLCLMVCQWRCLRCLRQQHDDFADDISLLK

In the case of `CC(C)CC(=O)N[C@H](C(=O)N[C@H](C(=O)N[C@@H](CC(C)C)[C@@H](O)CC(=O)N[C@@H](C)C(=O)N[C@@H](CC(C)C)[C@@H](O)CC(=O)O)C(C)C)C(C)C` [pepstatin] (Isovaleryl-VV[Sta]A[Sta]-OH), the “inhibition of BACE” value was “inhibited weakly”.
